Measurements from patent US20110112151A1, “COMPOUND CAPABLE OF INHIBITING 11-BETA HYDROXYSTERIOD DEHYDROGENASE” (priority 2008, published 2011).
Read-outs that look alike come from different tables or passages of the source.

Tests used:
11β-HSD1 = molecular target: T1, 11β-HSD1 (Homo sapiens, UniProt P28845); experiment: 11β-HSD1 HEK assay (cell based assay, SPA)
T1 construct: expressed in transfected cells; host or cells: HEK 293 (stably transfected, HEK 293/HSD11B1)
Procedure: 11β-HSD1 HEK Assay Protocol (Cell Based Assay)
11β-HSD1 activity is measured in whole HEK 293 cells stably transfected with the HSD11B1 gene. Cells are incubated in 96-well microplates in the presence of tritiated substrate. Enzyme activity is determined by measuring the amount of tritated product by scintillation proximity assay (SPA). Assay plates contain internal high and low controls to allow calculation of percentage inhibition.
1. […] 2. When the cells are 80% confluent the medium is removed from each well. 100 μl fresh, serum-free, medium containing ^3H-cortisone and test compound in 1% DMSO is added to each well*. Control wells are also dispensed. […] 3. The plate is incubated at 37° C. for the required time period. 4. 50 μl of media is removed from each well and transferred to a microplate containing 100 μl of a pre-incubated mixture of anti-cortisol antibody and SPA bead. The mixture is incubated with gentle shaking until equilibrium is reached, before transferring to a scintillation counter to establish the enzyme activity in each sample.
10 μl of compound is dispensed into each well of a 96-well microplate in 10% DMSO at 100 μM concentration. 90 μl media containing ^3H-cortisone is added to each well. The compound/media/substrate mixture is then transferred to the assay plate containing the cells. […]

[1] = HEK293, at 1 μM, whole HEK 293 cells stably transfected with the HSD11B1 gene, 3H-cortisone substrate, read-out: Activity (inhibition of 11β-HSD1)

T1 sequence (P28845 whole entry): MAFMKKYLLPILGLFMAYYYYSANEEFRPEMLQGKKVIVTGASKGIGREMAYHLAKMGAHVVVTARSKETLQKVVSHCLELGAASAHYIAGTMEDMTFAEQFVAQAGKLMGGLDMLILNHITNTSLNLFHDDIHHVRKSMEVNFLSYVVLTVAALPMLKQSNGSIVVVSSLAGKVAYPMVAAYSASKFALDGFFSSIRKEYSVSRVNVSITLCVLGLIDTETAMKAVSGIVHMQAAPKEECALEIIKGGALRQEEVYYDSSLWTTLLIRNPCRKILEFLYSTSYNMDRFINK

inhibition at 1 µM (11β-HSD1; [1])	melting point	SMILES	inhibition at 1 µM (11β-HSD1; HEK293, read-out: Activity (inhibition of 11β-HSD1))
> 60%	216 to 218 °C	CC(=O)Nc1nnc([S+]([O-])CC(=O)C23CC4CC(CC(C4)C2)C3)s1 (stereo not shown) [Example 94, N-(5-{[2-(Adamantan-1-yl)-2-oxoethane]sulfinyl}-1,3,4-thiadiazol-2-yl)acetamide]	–
> 60%	109 to 111 °C	COCc1nnc(SCC(=O)C23CC4CC(CC(C4)C2)C3)n1C [Example 107, 1-(Adamantan-1-yl)-2-{[5-(methoxymethyl)-4-methyl-4H-1,2,4-triazol-3-yl]sulfanyl}ethan-1-one]	–
> 60%	149 to 150 °C	Cn1cnnc1S(=O)(=O)CC(=O)C12CC3CC(CC(C3)C1)C2 [Example 77, 1-Adamantan-1-yl-2-(4-methyl-4H-[1,2,4]triazole-3-sulfonyl)-ethanone]	–
> 60%	159 to 161 °C	O=C(CS(=O)(=O)Cc1ccc(Cl)nc1)C12CC3CC(CC(C3)C1)C2 [Example 64, 1-Adamantan-1-yl-2-(6-chloro-pyridin-3-ylmethanesulfonyl)-ethanone]	–
> 60%	198 to 199 °C	Nc1nnc(SCC(=O)C23CC4CC(CC(C4)C2)C3)s1 [Example 88, 1-(Adamantan-1-yl)-2-[(5-amino-1,3,4-thiadiazol-2-yl)sulfanyl]ethanone]	–
< 20%	187 to 188 °C	O=C(CSc1n[nH]c(-c2ccccc2)n1)C12CC3CC(CC(C3)C1)C2 [Example 89, 1-(Adamantan-1-yl)-2-[(5-phenyl-1H-1,2,4-triazol-3-yl)sulfanyl]ethanone]	–
> 60%	209 to 211 °C	O=C(Nc1nnc(S(=O)(=O)CC(=O)C23CC4CC(CC(C4)C2)C3)s1)C1CC1 [Example 97, N-(5-{[2-(Adamantan-1-yl)-2-oxoethane]sulfonyl}-1,3,4-thiadiazol-2-yl)cyclopropanecarboxamide]	–
< 20%	177 to 178 °C	O=C(CSc1n[nH]c(-c2ccco2)n1)C12CC3CC(CC(C3)C1)C2 [Example 90, 1-(Adamantan-1-yl)-2-{[5-(furan-2-yl)-1H-1,2,4-triazol-3-yl]sulfanyl}ethanone]	–
20 to 60%	218 to 219 °C	O=C(Nc1nnc(SCC(=O)C23CC4CC(CC(C4)C2)C3)s1)C1CC1 [Example 95, N-(5-{[2-(Adamantan-1-yl)-2-oxoethyl]sulfanyl}-1,3,4-thiadiazol-2-yl)cyclopropanecarboxamide]	–
20 to 60%	158 to 159 °C	Cc1nnc(SCC(=O)C23CC4CC(CC(C4)C2)C3)n1Cc1ccc(Cl)cc1 [Example 105, 1-(Adamantan-1-yl)-2-({4-[(4-chlorophenyl)methyl]-5-methyl-4H-1,2,4-triazol-3-yl}sulfanyl)ethan-1-one]	–
> 60%	119 to 120.5 °C	Cc1nnc(SCC(=O)C23CC4CC(CC(C4)C2)C3)n1C(C)C [Example 103, 1-(Adamantan-1-yl)-2-{[5-methyl-4-(propan-2-yl)-4H-1,2,4-triazol-3-yl]sulfanyl}ethan-1-one]	–
> 60%	124.5 to 127 °C	Cn1cnnc1[S+]([O-])CC(=O)C12CC3CC(CC(C3)C1)C2 (stereo not shown) [Example 63, 1-Adamantan-1-yl-2-(4-methyl-4H-[1,2,4]triazole-3-sulfinyl)-ethanone]	–
> 60%	208 to 210 °C	CC(=O)Nc1nnc(SCC(=O)C23CC4CC(CC(C4)C2)C3)s1 [Example 91, N-(5-{[2-(Adamantan-1-yl)-2-oxoethyl]sulfanyl}-1,3,4-thiadiazol-2-yl)acetamide]	–
> 60%	113 to 114 °C	Cc1nnc(SCC(=O)C23CC4CC(CC(C4)C2)C3)n1C [Example 87, 1-(Adamantan-1-yl)-2-[(4,5-dimethyl-1,2,4-triazol-3-yl)sulfanyl]ethanone]	–

Second part, the molecule before the results:

SMILES	inhibition at 1 µM (11β-HSD1; [1])	melting point	inhibition at 1 µM (11β-HSD1; HEK293, read-out: Activity (inhibition of 11β-HSD1))
O=C(COc1cccnc1)C12CC3CC(CC(C3)C1)C2 [Example 61, 1-Adamantan-1-yl-2-(pyridin-3-yloxy)-ethanone]	> 60%	73 to 75 °C	–
CN(C)C(=O)c1ccc(SCC(=O)C23CC4CC(CC(C4)C2)C3)nc1 [Example 35, 6-(2-Adamantan-1-yl-2-oxo-ethylsulfanyl)-N,N-dimethyl-nicotinamide]	> 60%	62.5 to 64.5 °C	–
O=C(CSCc1ccc(Cl)nc1)C12CC3CC(CC(C3)C1)C2 [Example 62, 1-Adamantan-1-yl-2-(6-chloro-pyridin-3-ylmethylsulfanyl)-ethanone]	20 to 60%	88 to 90 °C	–
O=C(CSCc1cccnc1)C12CC3CC(CC(C3)C1)C2 [Example 7, 1-Adamantan-1-yl-2-(pyridin-3-ylmethylsulfanyl)-ethanone]	> 60%	45 to 47 °C	–
Cc1nnc(SCC(=O)C23CC4CC(CC(C4)C2)C3)s1 [Example 78, 1-Adamantan-1-yl-2-(5-methyl-[1,3,4]thiadiazol-2-ylsulfanyl)-ethanone]	–	102 to 105 °C	> 60%
Cn1c(SCC(=O)C23CC4CC(CC(C4)C2)C3)nc2ccccc21 [Example 14, 1-Adamantan-1-yl-2-(1-methyl-1H-benzoimidazol-2-ylsulfanyl)-ethanone]	< 20%	146 to 147.5 °C	–
O=C(CCc1cccnc1)C12CC3CC(CC(C3)C1)C2 [Example 39, 1-Adamantan-1-yl-3-pyridin-3-yl-propan-1-one]	> 60%	43 to 44.5 °C	–
O=C(O)c1ccc(SCC(=O)C23CC4CC(CC(C4)C2)C3)nc1 [Example 29, 6-(2-Adamantan-1-yl-2-oxo-ethylsulfanyl)-nicotinic acid]	> 60%	174 to 176 °C	–
O=C(C[S+]([O-])Cc1ccccn1)C12CC3CC(CC(C3)C1)C2 (stereo not shown) [Example 17, 1-Adamantan-1-yl-2-(pyridin-2-ylmethanesulfinyl)-ethanone]	> 60%	87 to 88.5 °C	–
Cn1ccnc1[S+]([O-])C(C)(C)C(=O)C12CC3CC(CC(C3)C1)C2 (stereo not shown) [Example 15, 1-Adamantan-1-yl-2-methyl-2-(1-methyl-1H-imidazole-2-sulfinyl)-propan-1-one]	< 20%	98 to 102 °C	–
O=C(CSc1ccncc1)C12CC3CC(CC(C3)C1)C2 [Example 27, 1-Adamantan-1-yl-2-(pyridin-4-ylsulfanyl)-ethanone]	> 60%	114 to 115 °C	–
O=C(C[S+]([O-])Cc1cccnc1)C12CC3CC(CC(C3)C1)C2 (stereo not shown) [Example 8, 1-Adamantan-1-yl-2-(pyridin-3-ylmethanesulfinyl)-ethanone]	> 60%	116 to 119 °C	–
